In US9695481B2, “Polynucleotides comprising a reporter sequence operatively linked to a regulatory element” (UNIVERSITEIT LEIDEN, priority 2010, dated 2017):
Counter-ions that a name gives are not always drawn. Like-named read-outs stand apart in the source and are kept apart here.

What was measured:
[1] = tested on: mouse ES cell lines containing a DsRed fluorescent reporter; settings: cited from earlier work
[2] = tested on: Bscl2-GFP and Srxn1-GFP mES reporter cells
[3] = cited from earlier work
Salmonella = settings: cited from earlier work
[4] = Genotoxicity profile; data extracted from Kirkland et al. 2008; cited from earlier work
[5] = tested on: Srxn1-GFP mES reporter cells; assay: Srxn1-GFP oxidative stress reporter
[6] = Genotoxicity profile, data extracted from Kirkland et al. 2008
[7] = from which GFP reporter is induced

Row | Compound | Bscl2-GFP/Srxn1-GFP GFP Induction [2] | In vivo genotoxicity [3, 6] | mES DsRed reporters ([1]; Hendriks et al. 2011) | Ames test (Salmonella; [6]) | In vitro genotoxicity [4] | other results
1 | CC(C)(C)OO [Tert-butyl hydroperoxide] | Pos. (key: Pos.: considered positive when exposure to at least two different concentrations of a compound resulted in >1.5 fold induction of GFP expression) |  |  |  |  | mES DsRed reporters [1]: Neg.
2 | OO [Hydrogen peroxide] |  | Neg. | Neg. | Pos. | Pos. | Bscl2-GFP/Srxn1-GFP Prim. toxic properties [2]: Pro-oxidant
3 | Oc1ccc(Cl)cc1Cl [2,4-dichlorophenol] | Pos. (key: Pos.: considered positive when exposure to at least two different concentrations of a compound resulted in >1.5 fold induction of GFP expression) |  | Pos. |  |  | In vivo genotoxicity ([3]; in vivo): Weak Pos.; Ames test (Salmonella): Neg.; Bscl2-GFP/Srxn1-GFP Prim. toxic properties [2]: Pro-oxidant
4 | CCc1cc(C(N)=S)ccn1 [Ethionamide] | Neg. |  | Neg. | Neg. | Weak Pos. | 
5 | NC(=S)N(C1CCCCC1)C1CCCCC1 [N,N-dicyclohexyl thiourea] | Neg. |  | Neg. | Neg. | Neg. | 
6 | c1ccncc1 [Pyrldlne] | Neg. | Neg. | Neg. | Neg. | Neg. | 
7 | COc1cc(/C=C/C(=O)CC(=O)/C=C/c2ccc(O)c(OC)c2)ccc1O [Curcumln] | Neg. |  | Neg. | Neg. | Pos. | 
8 | C=CCc1ccc(O)c(OC)c1 [Eugenol] | Neg. |  |  | Neg. |  | In vivo genotoxicity ([3]; in vivo): Equivocal; mES DsRed reporters [1]: Neg.
9 | CC(C)C=O [Isobutyraldehyde] | Neg. |  |  |  |  | mES DsRed reporters [1]: Neg.
10 | CC(=O)O[C@H]1C(=O)[C@@]2(C)[C@H]([C@H](OC(=O)c3ccccc3)[C@]3(O)C[C@H](OC(=O)[C@H](O)[C@@H](NC(=O)c4ccccc4)c4ccccc4)C(C)=C1C3(C)C)[C@]1(OC(C)=O)CO[C@@H]1C[C@@H]2O [Taxol] |  | Pos. |  | Neg. | Pos. | Bscl2-GFP/Srxn1-GFP Prim. toxic properties [2]: Genotoxin
11 | Nc1ccccc1C(=O)O [o-anthranilic acid] | Neg. | Neg. | Pos. | Neg. | Pos. | 
12 | CC[C@H]1OC(=O)[C@H](C)[C@@H](O[C@H]2C[C@@](C)(OC)[C@@H](O)[C@H](C)O2)[C@H](C)[C@@H](O[C@@H]2O[C@H](C)C[C@H](N(C)C)[C@H]2O)[C@](C)(O)C[C@@H](C)C(=O)[C@H](C)[C@@H](O)[C@]1(C)O [Erythromycin stearate] | Neg. |  |  | Neg. |  | 
13 | CCCCC(CC)COP(=O)(OCC(CC)CCCC)OCC(CC)CCCC (centres unmarked) [Tris(2-ethylhexyl)phosphate] | Neg. | Neg. | Neg. | Neg. | Neg. | 
14 | C=CC(=O)OCC [Ethyl acrylate] | Neg. |  | Neg. |  |  | In vivo genotoxicity ([3]; in vivo): Weak Pos.; Ames test (Salmonella): Neg.
15 | Oc1cccc(O)c1 [1,3-Dihydroxybenzene (Resorcinol), 1,3-Dihydroxybenzene] |  | Neg. |  | Neg. | Pos. | Bscl2-GFP/Srxn1-GFP Prim. toxic properties [2]: Equivocal
16 | Cc1noc(NS(=O)(=O)c2ccc(N)cc2)c1C [Sulfisoxazole] | Pos. (key: Pos.: considered positive when exposure to at least two different concentrations of a compound resulted in >1.5 fold induction of GFP expression) |  | Neg. | Neg. |  | Bscl2-GFP/Srxn1-GFP Prim. toxic properties [2]: Pro-oxidant
17 | CN(C)C(=O)Nc1cccc(C(F)(F)F)c1 [Fluometron] | Neg. |  | Neg. | Neg. | Neg. | 
18 | Nc1nc[nH]n1 [Amitrole] | Neg. | Neg. | Neg. | Neg. | Neg. | 
19 | CC[C@@]1(O)C(=O)OCc2c1cc1n(c2=O)Cc2cc3ccccc3nc2-1 [Camptothecin] | Pos. (considered positive when exposure to at least two different concentrations of a compound resulted in >1.5 fold induction of GFP expression) | Neg. |  | Neg. | Pos. | Bscl2-GFP/Srxn1-GFP Prim. toxic properties [2, 7]: Genotoxin
20 | Nc1ccc(Cl)cc1 [p-chloroaniline] | Neg. |  |  |  |  | In vivo genotoxicity ([3]; in vivo): Pos.; mES DsRed reporters [1]: Neg.; Ames test (Salmonella): Pos.

Row | Compound | Bscl2-GFP/Srxn1-GFP GFP Induction [2] | In vivo genotoxicity [3, 6] | mES DsRed reporters ([1]; Hendriks et al. 2011) | Ames test (Salmonella; [6]) | In vitro genotoxicity [4] | other results
21 | CCCCCC(O)C=CC=O (centres unmarked) [4-Hydroxy-2-nonenal] |  | Neg. |  | Neg. | Pos. | Bscl2-GFP/Srxn1-GFP Prim. toxic properties [2]: Pro-oxidant
22 | O=C1NS(=O)(=O)c2ccccc21.[Na] [Sodium saccharin] | Neg. |  |  |  |  | In vivo genotoxicity ([3]; in vivo): Neg.; mES DsRed reporters [1]: Neg.; Ames test (Salmonella): Neg.
23 | O=[N+]([O-])c1cc[n+]([O-])c2ccccc12 [4-Nitroquinelone-1-oxide] | Pos. (considered positive when exposure to at least two different concentrations of a compound resulted in >1.5 fold induction of GFP expression) | Pos. |  |  | Pos. | Bscl2-GFP/Srxn1-GFP Prim. toxic properties [2, 7]: Genotoxin
24 | ClC(Cl)(Cl)C(Cl)(Cl)Cl [Hexachloroethane] | Neg. | Neg. | Neg. | Neg. | Neg. | 
25 | O=[N+]([O-])c1ccc(O)cc1 [p-Nitrophenol] | Pos. (key: Pos.: considered positive when exposure to at least two different concentrations of a compound resulted in >1.5 fold induction of GFP expression) |  |  |  |  | mES DsRed reporters [1]: Neg.; Bscl2-GFP/Srxn1-GFP Prim. toxic properties [2]: Pro-oxidant
26 | [H]/N=C(/N)N/C(=N/[H])NCCc1ccccc1 [Phenformin HCl] | Neg. |  | Neg. |  |  | 
27 | CN1CC[C@H](c2c(O)cc(O)c3c(=O)cc(-c4ccccc4Cl)oc23)[C@H](O)C1 [Flavopiridol] | Neg. |  |  |  |  | 
28 | CC(=O)N[C@@H](CS)C(=O)O [NAC, N-acetyl cysteine] |  |  |  |  |  | effect on Srxn1-GFP reporter activation by pro-oxidants ([5]; co-incubation with DEM, CuSO4, NaAsO2, CdCl2 or MMS, 24 h): completely inhibited activation of the reporter; effect on Srxn1-GFP reporter activation by CisPt ([5]; data not shown): significantly reduced reporter activation; effect of scavenger alone on cell viability and reporter activity ([2]; data not shown): did not affect cell viability or reporter activity
29 | OCCNCCO [Diethanolamine] | Neg. | Neg. | Neg. | Neg. | Neg. | 
30 | Nc1ccn([C@@H]2O[C@H](CO)[C@@H](O)[C@@H]2O)c(=O)n1 [Cytarabine] |  |  |  |  |  | Ames test (Salmonella): Neg.; Bscl2-GFP/Srxn1-GFP Prim. toxic properties [2]: Genotoxin
31 | COC(N)=O [Methyl carbamate] |  | Neg. |  |  | Neg. | 
32 | CCCOC(=O)c1cc(O)c(O)c(O)c1 [Propyl gallate] |  | Equivocal | Pos. | Neg. | Pos. | Bscl2-GFP/Srxn1-GFP Prim. toxic properties [2]: Equivocal
33 | OCc1ccccc1 [Benzyl alcohol] | Neg. |  | Neg. | Neg. | Weak Pos. | 
34 | C[N+](C)(C)CCCl.[Cl-] [(2-chloroethyl)trimethyl-ammonium chloride] | Neg. |  |  |  |  | mES DsRed reporters [1]: Neg.; Ames test (Salmonella): Neg.
35 | O=C1CCCCC1 [Cyclohexanone] | Neg. |  | Neg. | Neg. | Neg. | 
36 | NC(N)=O [Urea] | Neg. |  | Neg. | Neg. | Pos. | 
37 | Bleomycin | Pos. (considered positive when exposure to at least two different concentrations of a compound resulted in >1.5 fold induction of GFP expression) | Pos. |  | Pos. | Pos. | Bscl2-GFP/Srxn1-GFP Prim. toxic properties [2, 7]: Genotoxin
38 | C=C(C)[C@H]1CC=C(C)CC1 [D-limonene] | Neg. |  | Neg. |  |  | 
39 | CC(C)(C)c1cc(O)ccc1O [Tert-butylhydroquinone] |  | Neg. | Pos. | Neg. | Pos. | Bscl2-GFP/Srxn1-GFP Prim. toxic properties [2]: Pro-oxidant
40 | n-butyl chloride |  |  |  |  |  | mES DsRed reporters [1]: Neg.
